# Laboratory results published in the CheMixHub ionic liquid set.
# ± gives the uncertainty stated by the source.
# Experiment: xn = mol fraction of the nth substance listed
# Details: 101 kPa
compound,measurement,setting,value
CCCC[n+]1ccn(C)c1.[O-][Cl+3]([O-])([O-])[O-] + CCO,viscosity,"303.15 K, x2 = 0.637",8.7 ± 4 mPa·s
same,viscosity,"303.15 K, x2 = 0.79",4 mPa·s
same,viscosity,"303.15 K, x2 = 0.86",3.6 mPa·s
same,viscosity,"313.15 K, x2 = 0.592",7.4 mPa·s
same,viscosity,"313.15 K, x2 = 0.637",6.7 mPa·s
